Patent US6706709B2, “Indolinone derivatives as protein kinase/phosphatase inhibitors” (Sugen, Inc., priority 2000, dated 2004)

Legend:
GST-Flk1 = GST-Flk1 (UniProt P35918); experiment: GST-FLK-1 bioassay (bio flkGST); format: biochemical
Description: This assay analyzes the tyrosine kinase activity of GST-Flk1 on poly glu tyr peptides.
2. poly glu tyr 4:1, lyophilizate (Sigma Catalog # P0275). Prepare 1 mg/mL poly glu tyr in sterile PBS and store in 1 ml aliquots at −20° C.
3. Preparation of poly glu tyr (pEY) coated assay plates: Coat 2 μg/well of poly glu tyr (pEY) in 100 μL PBS at room temperature for 2 hours or at +4° C. overnight. Cover plates well to prevent evaporation.
4. PBS Buffer: To make 1 liter of a 1× working solution, mix […], 1.15 g NA2HPO4, 0.2 g KCl and 8 g NaCl in approx. 900 mL dH2O. When all reagents have dissolved, adjust the pH to 7.2 with HCl. Bring total volume to 1L with dH2O.
5. PBS-Tw Buffer: To 1L of PBS Buffer, add […] Tween-20. Stir until dissolved.
6. TBB-Blocking Buffer: To make one liter of a 1× working solution, mix 1.21 g TRIS, 8.77 g NaCl, 1 mL TWEEN-20 in approximately 900 mL dH2O. Adjust pH to 7.2 with HCl. Add 10 g BSA, stir to dissolve. Bring total volume to 1 L with dH2O. Filter to remove particulate matter.
7. 1% BSA in PBS: To make a 1× working solution, add 10 g BSA to approx. 990 mL PBS buffer, stir to dissolve. Adjust total volume to 1 L with PBS buffer, filter to remove particulate matter.
9. GST-Flk1cd purified from sf9 recombinant baculovirus transformation.
13. Kinase Dilution Buffer (KDB): Mix 10 mL Hepes (pH 7.5), 1 mL of 5 M NaCl, 40 μL of 100 mM NaVO4 and 0.4 mL of 5% BSA in dH2O with 88.56 mL of dH2O.
14. NUNC-96-well V bottom polypropylene plates Applied Scientific Catalog # AS-72092
15. EDTA: Mix 14.12 g ethylenediaminetetraacetic acid (EDTA) to approx. 70 mL dH2O. Add 10N NaOH until EDTA dissolves. Adjust pH to 8.0. Adjust total volume to 100 mL with dH2O.
16. 1° Antibody Dilution Buffer: Mix 10 mL of 5% BSA in PBS buffer with 89.5 mL TBSTw.
17. Anti-phosphotyrosine monoclonal conjugated to horseradish peroxidase (PY99 HRP, Santa Cruz Biotech).
18. 2,2′-Azino-bis(3-ethylbenzthiazoline-6-sulfonic acid (ABTS, Moss, Cat. No. ABST).
1. Coat Corning 96 well ELISA plates with 2 μg of polyEY peptide in sterile PBS as described in step 3 of Materials and Reagents.
2. Remove unbound liquid from wells by inverting plate. Wash once with TBSTw. Pat the plate on a paper towel to remove excess liquid.
3. Add 100 μL of 1% BSA in PBS to each well. Incubate, with shaking, for 1 hr. at room temperature.
5. Soak wells with 50 mM Hepes pH7.5 (150 μL/well).
6. Dilute test compound with dH2O/4% DMSO to 4 times the desired final assay concentration in 96-well polypropylene plates.
7. Add 25 μL diluted test compound to ELISA plate.
8. Add 25 μL of 40 mM MnCl2 with 4×ATP (2 μM) to all wells.
9. Add 25 μL 0.5 M EDTA to negative control wells.
10. Dilute GST-Flk1 0.005 μg (5 ng)/well in KDB. For 50 ml KDB add 100 μL of 0.050 mg/mL GST-Flk1 enzyme.
11. Add 50 μL of diluted enzyme to each well.
12. Incubate, with shaking, for 15 minutes at room temperature.
13. Stop reaction by adding 50 μL of 250 mM EDTA (pH 8.0).
14. Wash 3× with TBSTw and pat plate on paper towel to remove excess liquid.
15. Add 100 μL per well anti-phosphotyrosine HRP conjugate, 1:5,000 dilution in antibody dilution buffer. Incubate, with shaking for 90 min. at room temperature.
16. Wash as described above in step 14.
17. Add 100 μL of room temperature ABTS solution to each well.
18. Incubate, with shaking, for 10 to 15 minutes. Remove any bubbles.
19. Stop reaction by adding 20 μL of 10% SDS.
20. Read assay on Dynatech MR7000 ELISA reader: test filter at 410 nM; reference filter at 630 nM.

EGF Receptor = molecular target: T1, EGF Receptor (Homo sapiens, UniProt P00533); experiment: bio EGF (EGF Receptor ELISA); format: biochemical
T1 construct: expressed in transfected cells; host or cells: NIH 3T3/C7 (mouse fibroblasts engineered to express human EGF-R)
Description: EGF Receptor kinase activity in cells genetically engineered to express human EGF-R was measured as described below:
The following materials and reagents were used:
b. 05-101 (UBI) (a monoclonal antibody recognizing an EGFR extracellular domain).
c. Anti-phosphotyrosine antibody (anti-Ptyr) (polyclonal).
d. Detection antibody: Goat anti-rabbit lgG horse radish peroxidase conjugate, TAGO, Inc., Burlingame, Calif.
Keep solution in dark at 4° C. until used.
The following protocol was used:
1. […] Coated plates are good for up to 10 days when stored at 4° C.
2. On day of use, remove coating buffer and replace with blocking buffer (5% Carnation Instant Non-Fat Dry Milk in PBS). Incubate the plate, shaking, at room temperature (about 23° C. to 25° C.) for 30 minutes. Just prior to use, remove blocking buffer and wash plate 4 times with TBST buffer.
2. Choose dishes having 80-90% confluence for the experiment. Trypsinize cells and stop reaction by adding 10% CS DMEM medium. Suspend cells in DMEM medium (10% CS DMEM medium) and centrifuge once at 1000 rpm at room temperature for 5 minutes.
3. Resuspend cells in seeding medium (DMEM, 0.5% bovine serum), and count the cells using trypan blue. Viability above 90% is acceptable. Seed cells in DMEM medium (0.5% bovine serum) at a density of 10,000 cells per well, 100 μL per well, in a 96 well microtiter plate. Incubate seeded cells in 5% CO2 at 37° C. for about 40 hours.
1. Check seeded cells for contamination using an inverted microscope. Dilute drug stock (10 mg/ml in DMSO) 1:10 in DMEM medium, then transfer 5 μL to a test well for a final drug dilution of 1:200 and a final DMSO concentration of 1%. Control wells receive DMSO alone. Incubate in 5% CO2 at 37° C. for one hour.
2. Prepare EGF ligand: dilute stock EGF in DMEM so that upon transfer of 10 μL dilute EGF (1:12 dilution), 25 nM final concentration is attained.
3. Prepare fresh 10 ml HNTG* sufficient for 100 μL per well wherein HNTG* comprises: HNTG stock (2.0 mL), milli-Q H2O (7.3 mL), EDTA, 100 mM, pH 7.0 (0.5 mL), Na3VO4 0.5 M (0.1 mL) and Na4(P2O7), 0.2 M (0.1 mL).
5. After two hours incubation with drug, add prepared EGF ligand to cells, 10 μL per well, to yield a final concentration of 25 nM. Control wells receive DMEM alone. Incubate, shaking, at room temperature, for 5 minutes.
6. Remove drug, EGF, and DMEM. Wash cells twice with PBS. Transfer HNTG* to cells, 100 μL per well. Place on ice for 5 minutes. Meanwhile, remove blocking buffer from other ELISA plate and wash with TBST as described above.
7. With a pipette tip securely fitted to a micropipettor, scrape cells from plate and homogenize cell material by repeatedly aspirating and dispensing the HNTG* lysis buffer. Transfer lysate to a coated, blocked, and washed ELISA plate. Incubate shaking at room temperature for one hour.
8. Remove lysate and wash 4 times with TBST. Transfer freshly diluted anti-Ptyr antibody to ELISA plate at 100 μL per well. Incubate shaking at room temperature for 30 minutes in the presence of the anti-Ptyr antiserum (1:3000 dilution in TBST).
9. Remove the anti-Ptyr antibody and wash 4 times with TBST. Transfer the freshly diluted TAGO 30 anti-rabbit IgG antibody to the ELISA plate at 100 μL per well. Incubate shaking at room temperature for 30 minutes (anti-rabbit IgG antibody: 1:3000 dilution in TBST).
10. Remove detection antibody and wash 4 times with TBST. Transfer freshly prepared ABTS/H2O2 solution to ELISA plate, 100 μL per well. Incubate at room temperature for 20 minutes. ABTS/H2O2 solution: 1.2 μL 30% H2O2in 10 mL ABTS stock.
11. Stop reaction by adding 50 μL 5N H2SO4 (optional), and determine O.D. at 410 nm.
12. The maximal phosphotyrosine signal is determined by subtracting the value of the negative controls from the positive controls. The percent inhibition of phosphotyrosine content for extract-containing wells is then calculated, after subtraction of the negative controls.

T1 sequence (P00533 25-1210): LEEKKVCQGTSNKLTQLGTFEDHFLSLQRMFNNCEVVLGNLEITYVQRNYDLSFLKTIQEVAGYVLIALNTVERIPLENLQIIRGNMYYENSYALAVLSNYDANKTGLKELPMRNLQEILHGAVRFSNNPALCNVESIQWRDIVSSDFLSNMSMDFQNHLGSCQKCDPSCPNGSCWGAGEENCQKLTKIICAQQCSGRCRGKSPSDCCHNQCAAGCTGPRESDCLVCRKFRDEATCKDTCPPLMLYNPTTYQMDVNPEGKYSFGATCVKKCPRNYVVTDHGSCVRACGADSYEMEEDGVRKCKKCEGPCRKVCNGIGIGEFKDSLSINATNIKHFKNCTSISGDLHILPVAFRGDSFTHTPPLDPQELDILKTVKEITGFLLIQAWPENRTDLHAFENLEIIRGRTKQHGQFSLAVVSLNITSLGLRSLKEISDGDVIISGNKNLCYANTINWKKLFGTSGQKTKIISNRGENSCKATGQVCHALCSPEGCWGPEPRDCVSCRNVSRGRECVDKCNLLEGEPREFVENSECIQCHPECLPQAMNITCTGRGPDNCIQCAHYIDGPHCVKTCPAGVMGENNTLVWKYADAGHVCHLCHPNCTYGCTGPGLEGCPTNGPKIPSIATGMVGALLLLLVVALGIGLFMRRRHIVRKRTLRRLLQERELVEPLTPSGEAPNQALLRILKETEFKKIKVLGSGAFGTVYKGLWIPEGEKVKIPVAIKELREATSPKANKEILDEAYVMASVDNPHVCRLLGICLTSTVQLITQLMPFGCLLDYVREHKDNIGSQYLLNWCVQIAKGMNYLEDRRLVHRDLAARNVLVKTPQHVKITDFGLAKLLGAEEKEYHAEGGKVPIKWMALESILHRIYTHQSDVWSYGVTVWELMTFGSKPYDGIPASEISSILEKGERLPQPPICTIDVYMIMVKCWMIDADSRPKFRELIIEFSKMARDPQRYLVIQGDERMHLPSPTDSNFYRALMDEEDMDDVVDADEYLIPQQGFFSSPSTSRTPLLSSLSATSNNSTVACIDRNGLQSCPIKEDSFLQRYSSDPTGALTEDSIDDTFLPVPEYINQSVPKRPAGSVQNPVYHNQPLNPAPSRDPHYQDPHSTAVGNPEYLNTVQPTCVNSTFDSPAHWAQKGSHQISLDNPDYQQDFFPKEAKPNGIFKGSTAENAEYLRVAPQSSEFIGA

Compound | IC50 (GST-Flk1) [µM] | IC50 (EGF Receptor) [µM]
O=C1Nc2cccc(CCO)c2C1=Cc1cc2cc(OCCN3CCCC3)ccc2[nH]1 [IN-024, 4-(2-hydroxy-ethyl)-3-[5-(2-pyrrolidin-1-yl-ethoxy)-1H-indol-2-ylmethylene]-1,3-dihydro-indol-2-one] | < 0.01 | > 20
O=C1Nc2cccc(CCO)c2C1=Cc1cc2cc(OCCN3CCOCC3)ccc2[nH]1 [IN-033, 4-(2-hydroxy-ethyl)-3-[5-(2-morpholin-4-yl-ethoxy)-1H-indol-2-ylmethylene]-1,3-dihydro-indol-2-one] | < 0.009 | 8.2
CN(C)S(=O)(=O)c1ccc2c(c1)C(=Cc1cc3ccccc3[nH]1)C(=O)N2 [IN-075, 3-(1H-indol-2-ylmethylene)-2-oxo-2,3-dihydro-1H-indole-5-sulfonic acid dimethylamide] | 6.51 | > 100
O=C1Nc2ccc(C(=O)O)cc2C1=Cc1cc2cc(OCCN3CCOCC3)ccc2[nH]1 [IN-030, 3-[5-(2-morpholin-4-yl-ethoxy)-1H-indol-2-ylmethylene]-2-oxo-2,3-dihydro-1H-indole-5-carboxylic acid] | < 0.009 | > 20
O=C1Nc2ccc(S(=O)(=O)Nc3ccc(Cl)cc3F)cc2C1=Cc1cc2cc(OCCN3CCOCC3)ccc2[nH]1 [IN-061, 3-[5-(2-morpholin-4-yl-ethoxy)-1H-indol-2-ylmethylene]-2-oxo-2,3-dihydro-1H-indole-5-sulfonic acid (4-chloro-2-fluoro-phenyl)-amide] | 0.39 | 4.46
O=C1Nc2cc(-c3cccnc3)ccc2C1=Cc1cc2cc(OCCN3CCCC3)ccc2[nH]1 [IN-025, 6-pyridin-3-yl-3-[5-(2-pyrrolidin-1-yl-ethoxy)-1H-indol-2-ylmethylene]-1,3-dihydro-indol-2-one] | 0.14 | > 20
O=C1Nc2ccc(S(=O)(=O)N3CCc4cc(Br)ccc43)cc2C1=Cc1cc2cc(OCCN3CCCC3)ccc2[nH]1 [IN-052, 5-(5-bromo-2,3-dihydro-indole-1-sulfonyl)-3-[5-(2-pyrrolidin-1-yl-ethoxy)-1H-indol-2-ylmethylene]-1,3-dihydro-indol-2-one] | 1.02 | 1.16
O=C1Nc2ccc(S(=O)(=O)Nc3cccnc3)cc2C1=Cc1cc2cc(OCCN3CCCC3)ccc2[nH]1 [IN-045, 2-oxo-3-[5-(2-pyrrolidin-1-yl-ethoxy)-1H-indol-2-ylmethylene]-2,3-dihydro-1H-indole-5-sulfonic acid pyridin-3-ylamide] | 0.12 | 8.02
CN(C)CCOc1ccc2[nH]c(C=C3C(=O)Nc4ccccc43)cc2c1 [IN-010, 3-[5-(2-dimethylamino-ethoxy)-1H-indol-2-ylmethylene]-1,3-dihydro-indol-2-one] | 0.35 | 88.8
O=C1Nc2ccc(S(=O)(=O)N3CCc4ccccc4C3)cc2C1=Cc1cc2cc(OCCN3CCOCC3)ccc2[nH]1 [IN-063, 5-(3,4-dihydro-1H-isoquinoline-2-sulfonyl)-3-[5-(2-morpholin-4-yl-ethoxy)-1H-indol-2-ylmethylene]-1,3-dihydro-indol-2-one] | 14.3 | > 20
O=C1Nc2ccc(S(=O)(=O)Nc3ccc(Cl)cc3F)cc2C1=Cc1cc2cc(OCCN3CCCC3)ccc2[nH]1 [IN-049, 2-oxo-3-[5-(2-pyrrolidin-1-yl-ethoxy)-1H-indol-2-ylmethylene]-2,3-dihydro-1H-indole-5-sulfonic acid (4-chloro-2-fluoro-phenyl)-amide] | 0.13 | 4.38
O=C1Nc2ccc(S(=O)(=O)Nc3ccccc3)cc2C1=Cc1cc2cc(OCCN3CCOCC3)ccc2[nH]1 [IN-056, 3-[5-(2-morpholin-4-yl-ethoxy)-1H-indol-2-ylmethylene]-2-oxo-2,3-dihydro-1H-indole-5-sulfonic acid phenylamide] | 9.96 | 15.5
NS(=O)(=O)c1ccc2c(c1)C(=Cc1c[nH]c3ccccc13)C(=O)N2 [IN-065, 3-(1H-indol-3-ylmethylene)-2-oxo-2,3-dihydro-1H-indole-5-sulfonic acid amide] | 11.7 | 
